Legend:
[1] = system: 3-nitrotyrosine protein nitration in astrocytes; experiment: Immunofluorescence of 3-nitrotyrosine adducts (protein nitration) in primary astrocytes treated with MPTP and cytokines; format: cell-based, mouse
Procedure: Immunofluorescence. Primary astrocytes were grown to confluence on 20 mm serum-coated glass coverslips and treated with saline or MPTP (10 μM), TNF-α (10 pg/ml), and IFN-γ (1 ng/ml) with or without DIM-C-pPhtBu (10 μM), rosiglitazone (10 μM), the NOS2 inhibitor AMT (25 nM) or NOS 1 inhibitor 7-NI (10 μM), or a DMSO vehicle control 8 hours prior to analysis. Immunofluorescence to confirm culture purity was conducted on cells grown to confluence on the 20 mm glass coverslips. Blocking and antibody hybridization was conducted in 1% BSA (w/v) in PBS, and all washes were conducted in PBS. Images were acquired using a Zeiss 20× air PlanApochromat objective and 6-8 microscopic fields were examined per treatment group over no less than three independent experiments. Fluorescent secondary antibodies were used to detect GFAP (488 nmcx/519 nmcm) and Iba1 or nitrosylated protein (647 nmcx/668 nmcm), respectively, while mounting medium containing DAPI (360 nmcx/460 nmcm) was used to identify cell nuclei.
The effect of NOS2 induction by MPTP and inflammatory cytokines on global protein nitration following NO/peroxynitrite (ONOO—) formation in astrocytes was examined by immunofluorescence (FIG. 3). Immunofluorescence using antibodies against GFAP (FITC) and 3-nitrotyrosine adducts (Cy5) was employed to measure the extent of protein nitration within astrocytes treated with MPTP and cytokines, with or without inclusion of DIM-C-pPhtBu (10 μM), rosiglitazone (10 μM), the high-affinity NOS2 inhibitor AMT (25 nM), the NOSI inhibitor 7-NI (10 μM) or a DMSO vehicle control. […] Co-treatment of astroytes with DIM-C-pPhtBu prevented MPTP-induced increases in nitration, resulting in similar levels of 3-nitrotyrosine adducts as saline-treated control cells (FIG. 3C). Mean intracellular fluorescence for 3-nitrotyrosine was quantified and compared between each treatment group (FIG. 3D).

[2] = system: 3-nitrotyrosine protein adducts in dopaminergic neurons of the substantia nigra; experiment: Protein nitration in dopaminergic neurons of mice treated with MPTP; format: in vivo, C57B1/6 mice; conditions: 50 mg/Kg oral gavage in corn oil once per day for four days following MPTP; substantia nigra 7 days following MPTP
Procedure: C57B1/6 mice were treated with MPTP (2 injections of 15 mg/kg, 12 hours apart) in the presence and absence of DIM-C-pPhOCH3 (DIM5) and assessed for 3-nitrotyrosine protein adducts (a marker of nitrosative stress and excessive NO/peroxynitrite formation). DIM-C-pPhOCH3 was administered once per day for four days following MPTP treatment by oral gavage in corn oil at 50 mg/Kg and frozen sections through the substantia nigra were prepared 7 days following MPTP. Immunofluorescence images were collected using a 40× Zeiss PlanApochromat objective for tyrosine hydroxylase (green), 3-nitrotyrosine (red), and DAPI (blue; DNA/nuclear stain). […] DIM-C-pPhOCH3 prevented protein nitration in dopaminergic neurons in mice treated with MPTP.

[3] = system: astrocyte activation, NOS2 and NF-κB/GFP expression in striatum; experiment: Anti-inflammatory efficacy in transgenic NF-κB-GFP reporter mice treated with MPTP; format: in vivo, mice (C57B1/6 background); conditions: 50 mg/Kg oral gavage in corn oil once per day for four days following MPTP; striatum 7 days following MPTP
Procedure: Transgenic NF-κB-GFP reporter mice (C57B1/6 background) were exposed to MPTP (2 injections of 15 mg/kg, 12 hours apart) in the presence and absence of DIM-C-pPhtBu and assessed for activation of astrocytes, expression of NOS2, and expression of GFP (representing NF-kB activity). DIM-C-pPhtBu was administered once per day for four days following MPTP treatment by oral gavage in corn oil at 50 mg/Kg and frozen sections through the striatum were prepared 7 days following MPTP. Immunofluorescent images were collected using a 40× Zeiss PlanApochromat objective for GFAP as marker for astrocytes (purple), NOS2 (red), green fluorescent protein (GFP; green), and DAPI (blue; DNA stain). Co-location of red and green channels is depicted in the image as yellow. […] This activated glial phenotype was inhibited by treatment with DIM-C-pPhtBu.

NF-κB = conditions: proximal p65 enhancer element; cited from earlier work

## COc1ccc(C(c2c[nH]c3ccccc23)c2c[nH]c3ccccc23)cc1 [DIM-C-pPhOCH3, 1,1-bis(3′-indolyl)-1-(p-methoxyphenyl)methane]
[1]; FIG. 7(D), concentration not given
  Protein nitration in primary astrocytes induced by MPTP and TNF-α/IFN-γ: prevents protein nitration
[2]
  Protein nitration (3-nitrotyrosine) in dopaminergic neurons: completely suppressed

## CC(C)(C)c1ccc(C(c2c[nH]c3ccccc23)c2c[nH]c3ccccc23)cc1 [DIM-C-pPhtBu, 1,1-bis(3′-indolyl)-1-(p-t-butylphenyl)methane]
[3]
  MPTP-induced activated glial phenotype (hypertrophic astrocytes expressing NOS2 and NF-κB/GFP): inhibited
[1]; 10 μM co-treatment, astrocytes, FIG. 3D
  MPTP-induced increase in 3-nitrotyrosine formation: prevented

## CN(CCOc1ccc(CC2SC(=O)NC2=O)cc1)c1ccccn1 (centres unmarked) [rosiglitazone, 5-((4-(2-(methyl-2-pyridinylamino)ethoxy)phenyl)methyl)-2,4-thiazolidinedione, reference compound]
NF-κB
  Effect on NF-κB in RAW macrophages: antagonize NF-κB by stabilizing NCoR2
